Holding throughout (experiment): relative viability (nuclei count vs DMSO), 5 days (fraction); higher = more cells survive
Compound in test [1]: COc1ccc(-c2ccc3c(N4CCOC[C@@H]4C)nc(N4CCOC[C@@H]4C)nc3n2)cc1CO [AZD8055] + CCNC(=O)c1noc(-c2cc(C(C)C)c(O)cc2O)c1-c1ccc(CN2CCOCC2)cc1 [Luminespib] (partner 0.01 µM)
The procedure, abridged:
(§1)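 After 5 days of treatment, lung cancer cells in 1536-well plates were fixed and stained in a single step (final 0.05% Triton X-100, 1% formaldehyde, 1 ug/ml Hoechst) and their nuclei counted on 4× images. Treatment had been applied by pin tool the day after seeding as one drug alone or as a fixed anchor-drug dose with five library-drug doses (not always all listed) in √10 steps. Relative viability is the nuclei count of treated wells divided by that of vehicle wells, and values are medians of duplicate plates.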

Compound in test [2]: COc1ccc(-c2ccc3c(N4CCOC[C@@H]4C)nc(N4CCOC[C@@H]4C)nc3n2)cc1CO [AZD8055] + Cc1nc(Nc2ncc(C(=O)Nc3c(C)cccc3Cl)s2)cc(N2CCN(CCO)CC2)n1 [Dasatinib] (partner 0.075 µM)
Put shortly:
as §1

Compound in test [3]: COc1ccc(-c2ccc3c(N4CCOC[C@@H]4C)nc(N4CCOC[C@@H]4C)nc3n2)cc1CO [AZD8055] + Nc1ncn([C@H]2C[C@H](O)[C@@H](CO)O2)c(=O)n1 [Decitabine] (partner 2 µM)
Put shortly:
as §1

Compound in test [4]: COc1ccc(-c2ccc3c(N4CCOC[C@@H]4C)nc(N4CCOC[C@@H]4C)nc3n2)cc1CO [AZD8055] + COc1cc2c(Oc3ccc(NC(=O)C4(C(=O)Nc5ccc(F)cc5)CC4)cc3F)ccnc2cc1OCCCN1CCOCC1 [Foretinib] (partner 0.25 µM)
Put shortly: as §1

As to LU99A, the relative viability in test [1] (first compound 0.01 µM) came out at 0.234; in test [1] (first compound 0.03162 µM), 0.189; in test [1] (first compound 0.1 µM), 0.185; in test [1] (first compound 0.3162 µM), 0.191; in test [1] (first compound 1 µM), 0.188; in test [2] (first compound 0.01 µM) it was 0.432. Moreover, the relative viability in test [2] (first compound 0.03162 µM) was 0.324; in test [2] (first compound 0.1 µM), 0.314; in test [2] (first compound 0.3162 µM), 0.173; in test [2] (first compound 1 µM), 0.268; in test [3] (first compound 0.01 µM), 1; in test [3] (first compound 0.03162 µM), 0.666. Further, the relative viability in test [3] (first compound 0.1 µM) is 0.417; in test [3] (first compound 0.3162 µM) it was 0.222; in test [3] (first compound 1 µM) it was 0.188; in test [4] (first compound 0.01 µM), 0.859; in test [4] (first compound 0.03162 µM) it was 0.627; in test [4] (first compound 0.1 µM) it was 0.681. In addition, the relative viability worked out at 0.264 in test [4] (first compound 0.3162 µM) and 0.302 in test [4] (first compound 1 µM).

In the case of LXF-289, the relative viability in test [1] (first compound 0.01 µM) worked out at 0.715; in test [1] (first compound 0.03162 µM), 0.599; in test [1] (first compound 0.1 µM) it was 0.623; in test [1] (first compound 0.3162 µM) it was 0.309; in test [1] (first compound 1 µM), 0.32; in test [2] (first compound 0.01 µM), 0.191. Further, the relative viability in test [2] (first compound 0.03162 µM) was 0.222; in test [2] (first compound 0.1 µM) it was 0.192; in test [2] (first compound 0.3162 µM) it was 0.118; in test [2] (first compound 1 µM), 0.109; in test [3] (first compound 0.01 µM), 0.397; in test [3] (first compound 0.03162 µM) it was 0.317. Besides, the relative viability in test [3] (first compound 0.1 µM) was 0.369; in test [3] (first compound 0.3162 µM) it was 0.343; in test [3] (first compound 1 µM) it was 0.356; in test [4] (first compound 0.01 µM), 1.05; in test [4] (first compound 0.03162 µM), 1.02; in test [4] (first compound 0.1 µM) it was 0.962. For the same cell line, the relative viability in test [4] (first compound 0.3162 µM) worked out at 0.763; in test [4] (first compound 1 µM) it was 0.72.

As to NCI-H23, the relative viability in test [1] (first compound 0.01 µM) is 0.193; in test [1] (first compound 0.03162 µM), 0.216; in test [1] (first compound 0.1 µM), 0.208; in test [1] (first compound 0.3162 µM) it was 0.229; in test [1] (first compound 1 µM), 0.297; in test [2] (first compound 0.01 µM), 0.874. Besides, the relative viability stood at 0.732 in test [2] (first compound 0.03162 µM); 0.572 in test [2] (first compound 0.1 µM); 0.276 in test [2] (first compound 0.3162 µM); 0.27 in test [2] (first compound 1 µM); 0.252 in test [3] (first compound 0.01 µM); 0.287 in test [3] (first compound 0.03162 µM). Further, the relative viability in test [3] (first compound 0.1 µM) was determined as 0.262; in test [3] (first compound 0.3162 µM), 0.225; in test [3] (first compound 1 µM) it was 0.262; in test [4] (first compound 0.01 µM), 1.02; in test [4] (first compound 0.03162 µM), 0.841; in test [4] (first compound 0.1 µM) it was 0.584. For the same cell line, the relative viability in test [4] (first compound 0.3162 µM) was found to be 0.451; in test [4] (first compound 1 µM) it was 0.347.

Turning to NCI-H322M, the relative viability in test [1] (first compound 0.01 µM) is 0.797; in test [1] (first compound 0.03162 µM), 0.597; in test [1] (first compound 0.1 µM) it was 0.357; in test [1] (first compound 0.3162 µM), 0.348; in test [1] (first compound 1 µM), 0.289; in test [2] (first compound 0.01 µM), 0.259. Moreover, the relative viability in test [2] (first compound 0.03162 µM) turned out to be 0.265; in test [2] (first compound 0.1 µM) it was 0.251; in test [2] (first compound 0.3162 µM), 0.246; in test [2] (first compound 1 µM), 0.249; in test [3] (first compound 0.01 µM), 0.71; in test [3] (first compound 0.03162 µM) it was 0.601. The relative viability in test [3] (first compound 0.1 µM) stood at 0.617; in test [3] (first compound 0.3162 µM), 0.555; in test [3] (first compound 1 µM), 0.588; in test [4] (first compound 0.01 µM), 0.933; in test [4] (first compound 0.03162 µM) it was 0.802; in test [4] (first compound 0.1 µM) it was 0.781. The relative viability in test [4] (first compound 0.3162 µM) was 0.573; in test [4] (first compound 1 µM), 0.6.

The values above are taken from the supplement of paper PMC10307832.
